{"source": "patent US20230382871A1", "about": "“CSF1R KINASE INHIBITOR AND USE THEREOF” (SHANGHAI INSTITUTE OF MATERIA MEDICA, CHINESE ACADEMY OF …, priority 2020, published 2023)", "key": {"recombinant CSF1R kinase": {"biological_target": "recombinant CSF1R kinase (Homo sapiens (Human), UniProt P07333)", "sequence (P07333 20-972)": "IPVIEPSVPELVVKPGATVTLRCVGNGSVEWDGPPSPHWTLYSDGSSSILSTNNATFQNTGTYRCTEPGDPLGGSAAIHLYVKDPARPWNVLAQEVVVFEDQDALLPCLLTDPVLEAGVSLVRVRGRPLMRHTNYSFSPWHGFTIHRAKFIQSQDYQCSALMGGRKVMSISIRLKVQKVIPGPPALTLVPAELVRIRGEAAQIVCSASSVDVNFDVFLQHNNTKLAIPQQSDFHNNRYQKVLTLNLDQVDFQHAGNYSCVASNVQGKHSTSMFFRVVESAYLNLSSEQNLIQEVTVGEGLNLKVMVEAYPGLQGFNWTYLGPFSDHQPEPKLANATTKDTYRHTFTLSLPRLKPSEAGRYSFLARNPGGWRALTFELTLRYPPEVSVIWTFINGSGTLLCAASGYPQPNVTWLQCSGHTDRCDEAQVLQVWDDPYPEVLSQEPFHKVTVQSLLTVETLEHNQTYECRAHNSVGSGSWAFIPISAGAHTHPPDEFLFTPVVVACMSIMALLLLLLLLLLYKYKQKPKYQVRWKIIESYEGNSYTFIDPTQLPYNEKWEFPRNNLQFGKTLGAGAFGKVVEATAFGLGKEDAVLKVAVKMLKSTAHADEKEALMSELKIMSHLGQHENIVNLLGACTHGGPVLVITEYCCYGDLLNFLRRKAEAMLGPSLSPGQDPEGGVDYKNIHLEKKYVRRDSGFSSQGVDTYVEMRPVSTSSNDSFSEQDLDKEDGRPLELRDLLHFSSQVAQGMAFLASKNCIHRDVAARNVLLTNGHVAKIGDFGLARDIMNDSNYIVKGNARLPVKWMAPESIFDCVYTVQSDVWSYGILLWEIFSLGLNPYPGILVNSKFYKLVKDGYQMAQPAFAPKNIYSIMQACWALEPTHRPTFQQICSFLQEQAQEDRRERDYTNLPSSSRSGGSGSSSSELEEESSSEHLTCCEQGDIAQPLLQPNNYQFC", "assay": "CSF1R kinase activity ELISA assay", "assay_type": "biochemical", "settings": "poly(Glu, Tyr)4:1 substrate, ATP 5 μM, read-out: IC50, inhibition of CSF1R kinase activity"}, "[1]": {"tested_on": "phosphorylated CSF1R (p-CSF1R) in BMDM", "assay": "Western blot of CSF1-stimulated CSF1R phosphorylation in BMDM", "assay_type": "cell-based, mouse", "method": "Bone marrow-derived macrophages, after induction by CSF1 for 5 to 7 days, were centrifuged to remove the previous medium. 2 mL of a serum-free medium was added. […] CSF1 factor was added at a final concentration of 50 ng/mL for stimulation for 15 minutes. The culture medium was discarded, and cells were washed three times with pre-cooled PBS. Then, the cells were lysed by adding 1×SDS gel loading buffer. The cell lysates were heated in a boiling water bath for 15 min, and then stored at −20° C.\nA protein sample as described above was subjected to SDS-PAGE electrophoresis. Then, the protein was transferred to a nitrocellulose membrane using a semi-dry electrotransfer system. The nitrocellulose membrane was placed in a blocking solution (5% skim milk in TBS-T) and incubated for 2 h at room temperature. Then, the membrane was allowed to react with a primary antibody overnight at 4° C. After the membrane was washed with TBS-T for three times with 15 min each time, the membrane was allowed to react in a secondary antibody dilution at room temperature for 1-2 h. […]\nThe inhibitory effect of Compound I on CSF1R and its signaling pathway in mouse primary macrophages was detected by immunoblotting assays. Each experiment was independently repeated three times and all experimental results were quantified. […]"}, "[2]": {"tested_on": "macrophage marker F4/80 in U87MG tumor tissues", "assay": "Immunohistochemistry of macrophage marker F4/80 in U87MG tumor tissues", "assay_type": "in vivo, nude mice", "settings": "40 mg/kg, compared with blank preparation group", "method": "(§1) At the end of the in vivo experiments, U87MG and HT-29 xenografts in nude mice were removed and fixed with […] to prepare paraffin sections.\n(§2) Expression of individual proteins was assessed using multiplicative quick score method (MQS). This evaluation method takes into account both the staining intensity and the staining range. The method estimates the proportion of positive cells and gives a range score from 1 to 6 (1=1%-4%; 2=5%-19%; 3=20%-39%; 4=40%-59%; 5=60%-79%; 6=80%-100%). The average intensity score of positive stained cells was 0 to 3 (0=no staining; 1=weak staining; 2=moderate staining; 3=strong staining). The total score a (minimum 0 and maximum 18) is then calculated by multiplying the range score by the intensity score.\n(§3) For detecting the changes in the macrophage marker F4/80 and M2-type macrophage marker CD206 in the U87MG tumor tissues, quantitative analysis (solvent: n=6, blank preparation: n=6, Compound I (10 mg/kg): n=6, Compound I (20 mg/kg): n=6, Compound I (40 mg/kg): n=6, Axitinib: n=4) was performed on all sections and the experimental data were analyzed for significant differences using the t-test. * denotes p<0.05 as compared with the blank preparation group, ** denotes p<0.01 as compared with the blank preparation group, and denotes p<0.001 as compared with the blank preparation group."}, "[3]": {"tested_on": "macrophage marker F4/80 in HT-29 tumor tissues", "assay": "Immunohistochemistry of macrophage marker F4/80 in HT-29 tumor tissues", "assay_type": "in vivo, nude mice", "settings": "Compound I 5, 10, 20 mg/kg; Axitinib 40 mg/kg", "method": "At the end of the in vivo experiments, U87MG and HT-29 xenografts in nude mice were removed and fixed with […] to prepare paraffin sections. Expression of individual proteins was assessed using multiplicative quick score method (MQS). This evaluation method takes into account both the staining intensity and the staining range. […] The average intensity score of positive stained cells was 0 to 3 (0=no staining; 1=weak staining; 2=moderate staining; 3=strong staining). The total score a (minimum 0 and maximum 18) is then calculated by multiplying the range score by the intensity score."}, "[4]": {"tested_on": "M2-type macrophage marker CD206 in HT-29 tumor tissues", "assay": "Immunohistochemistry of M2-type macrophage marker CD206 in HT-29 tumor tissues", "assay_type": "in vivo, nude mice", "settings": "Compound I 5, 10, 20 mg/kg; Axitinib 40 mg/kg", "method": "as §1, §2\nas §3, with “the HT-29” for “the U87MG”, “(solvent: n=12,” for “(solvent: n=6,”, “preparation: n=6, Compound I (5 mg/kg):” for “preparation:”, “n=6,” for “n=6, Compound I (40 mg/kg): n=6,”, “Axitinib: n=6)” for “Axitinib: n=4)”"}}, "data": [{"smiles": "Cc1cc(NC(=O)c2cccc3cc(-c4cccc5[nH]nc(N)c45)ccc23)ccc1F", "note": "[Compound I]", "values": [{"measurement": "IC50", "setting": "recombinant CSF1R kinase", "value": "19.3 ± 3.4", "unit": "nM"}, {"measurement": "inhibition at 0.1 µM", "setting": "[1]; Mus musculus, 100 nM, 2 h, CSF1 50 ng/mL 15 min", "value": 57.3, "unit": "%"}, {"measurement": "CSF1 stimulated phosphorylation levels of CSF1R and AKT", "setting": "[1]; immunoblotting", "value": "inhibited in a dose-dependent manner"}, {"measurement": "expression of F4/80 in macrophages, U87MG tumor tissue", "setting": "[2]", "value": "significantly reduced"}, {"measurement": "expression of F4/80, HT-29 tumor tissue", "setting": "[3]", "value": "inhibited the expression of F4/80 and CD206 in a dose-dependent manner"}, {"measurement": "expression of CD206, HT-29 tumor tissue", "setting": "[4]", "value": "inhibited the expression of F4/80 and CD206 in a dose-dependent manner"}]}]}
